{"source": "PubChem BioAssay AID2060886", "about": "(Molecular Pharmacology Branch, DTP, NCI, 2025);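 also: spheroids exposed to the agents for seven days before the readout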", "test_system": "653999-131-R-J2-PDC complex spheroids, growth inhibition", "assay": "Anticancer human tumor 653999-131-R-J2-PDC patient-derived lung adenocarcinoma cell line growth inhibition [RAS]", "conditions": "for IC50: curve of first compound; for viability, T/C: stronger effect = lower value", "summary_of_the_method": "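Tumour cells grown as complex spheroids with HUVEC endothelial cells and mesenchymal stem cells, treated with RAS pathway inhibitor combinations. Each agent spans half-log steps from near clinical Cmax, or 10 microM where Cmax is unknown.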"}
{"smiles": "CC(Nc1ccc2c(c1)OCCn1cc(N3C(=O)OCC3C(F)F)nc1-2)C(N)=O", "note": "(configuration not stated) + C=CC(=O)N1CCN(c2nc(OCC3CCCN3C)nc3c(F)c(-c4nc(N)cc(C)c4C(F)(F)F)c(Cl)cc23)C(C)C1", "values": [{"measurement": "IC50", "setting": "second compound 0.00316 µM", "result": 645, "unit": "nM"}, {"measurement": "IC50", "setting": "second compound 0.01 µM", "result": 717, "unit": "nM"}, {"measurement": "IC50", "setting": "second compound 0.0316 µM", "result": 636, "unit": "nM"}, {"measurement": "IC50", "setting": "second compound 0.1 µM", "result": 1160, "unit": "nM"}, {"measurement": "IC50", "setting": "second compound 0.316 µM", "result": 536, "unit": "nM"}, {"measurement": "IC50", "setting": "second compound 1 µM", "result": 571, "unit": "nM"}, {"measurement": "viability, T/C", "setting": "second compound 0.00316 µM, first compound 0.0316 µM", "result": 111, "unit": "%"}, {"measurement": "viability, T/C", "setting": "second compound 0.00316 µM, first compound 0.1 µM", "result": 75.6, "unit": "%"}, {"measurement": "viability, T/C", "setting": "second compound 0.00316 µM, first compound 0.316 µM", "result": 55.9, "unit": "%"}, {"measurement": "viability, T/C", "setting": "second compound 0.00316 µM, first compound 1 µM", "result": 51.5, "unit": "%"}, {"measurement": "viability, T/C", "setting": "second compound 0.00316 µM, first compound 3.16 µM", "result": 36.5, "unit": "%"}, {"measurement": "viability, T/C", "setting": "second compound 0.00316 µM, first compound 10 µM", "result": 25.3, "unit": "%"}, {"measurement": "viability, T/C", "setting": "second compound 0.01 µM, first compound 0.0316 µM", "result": 104, "unit": "%"}, {"measurement": "viability, T/C", "setting": "second compound 0.01 µM, first compound 0.1 µM", "result": 83.6, "unit": "%"}, {"measurement": "viability, T/C", "setting": "second compound 0.01 µM, first compound 0.316 µM", "result": 61.1, "unit": "%"}, {"measurement": "viability, T/C", "setting": "second compound 0.01 µM, first compound 1 µM", "result": 42.2, "unit": "%"}, {"measurement": "viability, T/C", "setting": "second compound 0.01 µM, first compound 3.16 µM", "result": 40.4, "unit": "%"}, {"measurement": "viability, T/C", "setting": "second compound 0.01 µM, first compound 10 µM", "result": 26.5, "unit": "%"}, {"measurement": "viability, T/C", "setting": "second compound 0.0316 µM, first compound 0.0316 µM", "result": 96.5, "unit": "%"}, {"measurement": "viability, T/C", "setting": "second compound 0.0316 µM, first compound 0.1 µM", "result": 70.1, "unit": "%"}, {"measurement": "viability, T/C", "setting": "second compound 0.0316 µM, first compound 0.316 µM", "result": 58.9, "unit": "%"}, {"measurement": "viability, T/C", "setting": "second compound 0.0316 µM, first compound 1 µM", "result": 44.9, "unit": "%"}, {"measurement": "viability, T/C", "setting": "second compound 0.0316 µM, first compound 3.16 µM", "result": 38.5, "unit": "%"}, {"measurement": "viability, T/C", "setting": "second compound 0.0316 µM, first compound 10 µM", "result": 26, "unit": "%"}, {"measurement": "viability, T/C", "setting": "second compound 0.1 µM, first compound 0.0316 µM", "result": 85.6, "unit": "%"}, {"measurement": "viability, T/C", "setting": "second compound 0.1 µM, first compound 0.1 µM", "result": 66.3, "unit": "%"}, {"measurement": "viability, T/C", "setting": "second compound 0.1 µM, first compound 0.316 µM", "result": 68.8, "unit": "%"}, {"measurement": "viability, T/C", "setting": "second compound 0.1 µM, first compound 1 µM", "result": 50.7, "unit": "%"}, {"measurement": "viability, T/C", "setting": "second compound 0.1 µM, first compound 3.16 µM", "result": 40, "unit": "%"}, {"measurement": "viability, T/C", "setting": "second compound 0.1 µM, first compound 10 µM", "result": 21.6, "unit": "%"}, {"measurement": "viability, T/C", "setting": "second compound 0.316 µM, first compound 0.0316 µM", "result": 85.9, "unit": "%"}, {"measurement": "viability, T/C", "setting": "second compound 0.316 µM, first compound 0.1 µM", "result": 78.1, "unit": "%"}, {"measurement": "viability, T/C", "setting": "second compound 0.316 µM, first compound 0.316 µM", "result": 55.1, "unit": "%"}, {"measurement": "viability, T/C", "setting": "second compound 0.316 µM, first compound 1 µM", "result": 40.9, "unit": "%"}, {"measurement": "viability, T/C", "setting": "second compound 0.316 µM, first compound 3.16 µM", "result": 37.5, "unit": "%"}, {"measurement": "viability, T/C", "setting": "second compound 0.316 µM, first compound 10 µM", "result": 26.9, "unit": "%"}, {"measurement": "viability, T/C", "setting": "second compound 1 µM, first compound 0.0316 µM", "result": 87.9, "unit": "%"}, {"measurement": "viability, T/C", "setting": "second compound 1 µM, first compound 0.1 µM", "result": 67.6, "unit": "%"}, {"measurement": "viability, T/C", "setting": "second compound 1 µM, first compound 0.316 µM", "result": 60.5, "unit": "%"}, {"measurement": "viability, T/C", "setting": "second compound 1 µM, first compound 1 µM", "result": 37.9, "unit": "%"}, {"measurement": "viability, T/C", "setting": "second compound 1 µM, first compound 3.16 µM", "result": 41.3, "unit": "%"}, {"measurement": "viability, T/C", "setting": "second compound 1 µM, first compound 10 µM", "result": 28.7, "unit": "%"}]}
